The text below walks through data of US20220118117A1, “MODULATORS OF METABOTROPIC GLUTAMATE RECEPTOR 4” (The General Hospital Corporation, priority 2019, published 2022).

The data set is described as follows: Log D7.4, scaled-down shake flask method using [18F]15. Type of data set: physicochemical. As to conditions: octanol / phosphate buffer pH 7.4. Here is the method: The test tube was mixed by vortex for 2 min and then centrifuged for 2 min to fully separate the aqueous and organic phase. The samples taken from the octanol layer (0.1 mL) and the aqueous layer (1.0 mL) were saved for radioactivity measurement. An additional aliquot of the octanol layer […] was carefully transferred to a new test tube containing 0.5 mL of octanol and 2.5 mL of phosphate buffer solution (pH 7.4). The previous procedure (vortex mixing, centrifugation, sampling, and transfer to the next test tube) was repeated until six sets of aliquot samples had been prepared. The radioactivity of each sample was measured using PerkinElmer Wizard2 2480 gamma-counter. The log D of each set of samples was calculated as the following:
Log D7.4=Log(radioactivity of octanol layer×10/radioactivity of PBS layer)
Lipophilicity has a major effect on BBB penetration, ADMET properties and pharmacological activity. […] The Log D7.4 of 15 was 3.82 as measured with a scaled-down shake flask method using [^18F]15 (Table 2) and is in the range normally considered favorable for a PET ligand. (Ref. 43).

For the compound `[2H]C([2H])(F)Sc1cc(NC(=O)c2ccccn2)ccc1Cl` [Compound 15, N-(4-Chloro-3-((fluoromethyl-d2)thio)phenyl)picolinamide], the “Log D7.4” value came to 3.82.
